Reference: patent US11254663B2 (BRISTOL-MYERS SQUIBB COMPANY, priority 2019, dated 2022)

Each molecule was assayed against FXR (Homo sapiens (Human), UniProt Q96RI1) (assay: transient human FXR/Gal4-luciferase reporter assay). Conditions: Gal4-hFXR fusion construct, HEK293 reporter cells; response relative to 8 μM GW-4064.
Format: cell-based
Procedure, shortened: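 Compound exposure ran overnight at 37 °C and activity was measured as luminescence with Steady-Glo reagent. The cells were a HEK293 line stably expressing firefly luciferase under five Gal4 response elements. They were transiently transfected, one night beforehand, with a plasmid encoding Gal4 DNA-binding domain fused to the human FXR ligand-binding domain.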

Sequence of FXR (Q96RI1 262-486): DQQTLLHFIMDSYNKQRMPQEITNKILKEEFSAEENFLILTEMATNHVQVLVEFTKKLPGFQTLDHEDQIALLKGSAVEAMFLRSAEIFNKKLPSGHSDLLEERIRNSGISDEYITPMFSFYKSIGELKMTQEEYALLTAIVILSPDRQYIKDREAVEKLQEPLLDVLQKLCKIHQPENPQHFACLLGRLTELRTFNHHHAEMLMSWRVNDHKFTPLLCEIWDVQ

Structure (SMILES) | EC50 [µM]
Cc1nc2ccc(-c3cccc(N(CC45CCC(c6cc(C7CC7)nn6C)(CC4)CC5)C(=O)C45CC(F)(C4)C5)c3)cc2s1 [Example 415, N-((4-(3-cyclopropyl-1-methyl-1H-pyrazol-5-yl)bicyclo[2.2.2]octan-1-yl)methyl)-3-fluoro-N-(3-(2-methylbenzo[d]thiazol-6-yl)phenyl)bicyclo[1.1.1]pentane-1-carb oxamide] | 0.125
CN1CCN(c2cccc(N(CC34CCC(c5nc(C6CC6)no5)(CC3)CC4)C(=O)C34CC(F)(C3)C4)c2)CC1 [Example 416, N-((4-(3-cyclopropyl-1,2,4-oxadiazol-5-yl)bicyclo[2.2.2]octan-1-yl)methyl)-3-fluoro-N-(3-(4-methylpiperazin-1-yl)phenyl)bicyclo[1.1.1]pentane-1-carboxamide] | 1.06
CCOc1ncc(-c2cccc(N(CC34CCC(c5cnc(C(F)(F)F)nc5)(CC3)OC4)C(=O)C34CC(F)(C3)C4)c2)cn1 [Example 418, N-(3-(2-ethoxypyrimidin-5-yl)phenyl)-3-fluoro-N-((1-(2-(trifluoromethyl)pyrimidin-5-yl)-2-oxabicyclo[2.2.2]octan-4-yl)methyl)bicyclo[1.1.1]pentane-1-carboxamide] | 2.04
CS(=O)(=O)Nc1ccc(-c2cccc(N(CC34CCC(c5cnc(C(F)(F)F)nc5)(CC3)OC4)C(=O)C34CC(F)(C3)C4)c2)cc1 [Example 419, 3-fluoro-N-(4′-(methylsulfonamido)-[1,1′-biphenyl]-3-yl)-N-((1-(2-(trifluoromethyl)pyrimidin-5-yl)-2-oxabicyclo[2.2.2]octan-4-yl)methyl)bicyclo[1.1.1]pentane-1-carboxamide] | 0.523
COc1ccc(-c2cccc(N(CC34CCC(c5cnc(C(F)(F)F)nc5)(CC3)OC4)C(=O)C34CC(F)(C3)C4)c2)cc1 [Example 420, 3-fluoro-N-(4′-methoxy-[1,1′-biphenyl]-3-yl)-N-((1-(2-(trifluoromethyl)pyrimidin-5-yl)-2-oxabicyclo[2.2.2]octan-4-yl)methyl)bicyclo[1.1.1]pentane-1-carboxamide] | 0.802
Cc1nc2ccc(-c3cccc(N(CC45CCC(c6cnc(C(F)(F)F)nc6)(CC4)OC5)C(=O)C45CC(F)(C4)C5)c3)cc2s1 [Example 421, 3-fluoro-N-(3-(2-methylbenzo[d]thiazol-6-yl)phenyl)-N-((1-(2-(trifluoromethyl)pyrimidin-5-yl)-2-oxabicyclo[2.2.2]octan-4-yl)methyl)bicyclo[1.1.1]pentane-1-carboxamide] | 2.17
CCOc1ccc(-c2cccc(N(CC34CCC(c5cnc(C(F)(F)F)nc5)(CC3)OC4)C(=O)C34CC(F)(C3)C4)c2)cc1 [Example 422, N-(4′-ethoxy-[1,1′-biphenyl]-3-yl)-3-fluoro-N-((1-(2-(trifluoromethyl)pyrimidin-5-yl)-2-oxabicyclo[2.2.2]octan-4-yl)methyl)bicyclo[1.1.1]pentane-1-carboxamide] | 1.52
CCOc1ncc(-c2cncc(N(CC34CCC(c5nc(C6CC6)no5)(CC3)CC4)C(=O)C34CC(F)(C3)C4)c2)cn1 [Example 423, N-((4-(3-cyclopropyl-1,2,4-oxadiazol-5-yl)bicyclo[2.2.2]octan-1-yl)methyl)-N-(5-(2-ethoxypyrimidin-5-yl)pyridin-3-yl)-3-fluorobicyclo[1.1.1]pentane-1-carboxamide] | 0.238
CCOc1ccc(-c2cncc(N(CC34CCC(c5nc(C6CC6)no5)(CC3)CC4)C(=O)C34CC(F)(C3)C4)c2)cc1 [Example 424, N-((4-(3-cyclopropyl-1,2,4-oxadiazol-5-yl)bicyclo[2.2.2]octan-1-yl)methyl)-N-(5-(4-ethoxyphenyl)pyridin-3-yl)-3-fluorobicyclo[1.1.1]pentane-1-carboxamide] | 0.483
Cc1nc2ccc(-c3cncc(N(CC45CCC(c6nc(C7CC7)no6)(CC4)CC5)C(=O)C45CC(F)(C4)C5)c3)cc2s1 [Example 425, N-((4-(3-cyclopropyl-1,2,4-oxadiazol-5-yl)bicyclo[2.2.2]octan-1-yl)methyl)-3-fluoro-N-(5-(2-methylbenzo[d]thiazol-6-yl)pyridin-3-yl)bicyclo[1.1.1]pentane-1-carboxamide] | 0.198
CCOc1ccc(-c2cncc(N(CC34CCC(c5nc(C6CC6)no5)(CC3)CC4)C(=O)C34CC(F)(C3)C4)c2)cn1 [Example 426, N-((4-(3-cyclopropyl-1,2,4-oxadiazol-5-yl)bicyclo[2.2.2]octan-1-yl)methyl)-N-(6′-ethoxy-[3,3′-bipyridin]-5-yl)-3-fluorobicyclo[1.1.1]pentane-1-carboxamide] | 0.417
CS(=O)(=O)Nc1ccc(-c2cncc(N(CC34CCC(c5nc(C6CC6)no5)(CC3)CC4)C(=O)C34CC(F)(C3)C4)c2)cc1 [Example 427] | 0.671
O=C(N(CC12CCC(c3nc(C4CC4)no3)(CC1)CC2)c1cncc(-c2cnc(C(F)(F)F)nc2)c1)C12CC(F)(C1)C2 [Example 428, N-((4-(3-cyclopropyl-1,2,4-oxadiazol-5-yl)bicyclo[2.2.2]octan-1-yl)methyl)-3-fluoro-N-(5-(2-(trifluoromethyl)pyrimidin-5-yl)pyridin-3-yl)bicyclo[1.1.1]pentane-1-carboxamide] | 3.55
CCOc1ncc(-c2cccc(N(CC34CCC(c5noc(C(C)C)n5)(CC3)CC4)C(=O)C34CC(F)(C3)C4)c2)cn1 [Example 429, N-(3-(2-ethoxypyrimidin-5-yl)phenyl)-3-fluoro-N-((4-(5-isopropyl-1,2,4-oxadiazol-3-yl)bicyclo[2.2.2]octan-1-yl)methyl)bicyclo[1.1.1]pentane-1-carboxamide] | 0.046
CC(C)c1nc(C23CCC(CN(C(=O)C45CC(F)(C4)C5)c4cccc(-c5ccc(NS(C)(=O)=O)cc5)c4)(CC2)CC3)no1 [Example 430, 3-fluoro-N-((4-(5-isopropyl-1,2,4-oxadiazol-3-yl)bicyclo[2.2.2]octan-1-yl)methyl)-N-(4′-(methylsulfonamido)-[1,1′-biphenyl]-3-yl)bicyclo[1.1.1]pentane-1-carboxamide] | 0.04
CCOc1ccc(-c2cccc(N(CC34CCC(c5noc(C(C)C)n5)(CC3)CC4)C(=O)C34CC(F)(C3)C4)c2)cc1 [Example 431, N-(4′-ethoxy-[1,1′-biphenyl]-3-yl)-3-fluoro-N-((4-(5-isopropyl-1,2,4-oxadiazol-3-yl)bicyclo[2.2.2]octan-1-yl)methyl)bicyclo[1.1.1]pentane-1-carboxamide] | 0.025
CCOc1ccc(-c2cccc(N(CC34CCC(c5noc(C(C)C)n5)(CC3)CC4)C(=O)C34CC(F)(C3)C4)c2)cn1 [Example 432, N-(3-(6-ethoxypyridin-3-yl)phenyl)-3-fluoro-N-((4-(5-isopropyl-1,2,4-oxadiazol-3-yl)bicyclo[2.2.2]octan-1-yl)methyl)bicyclo[1.1.1]pentane-1-carboxamide] | 0.051
Cc1nc2ccc(-c3cccc(N(CC45CCC(c6noc(C(C)C)n6)(CC4)CC5)C(=O)C45CC(F)(C4)C5)c3)cc2s1 [Example 433, 3-fluoro-N-((4-(5-isopropyl-1,2,4-oxadiazol-3-yl)bicyclo[2.2.2]octan-1-yl)methyl)-N-(3-(2-methylbenzo[d]thiazol-6-yl)phenyl)bicyclo[1.1.1]pentane-1-carboxamide] | 0.037
